# Molecular target: CXCR7 (Homo sapiens (Human), UniProt P25106)
# Experiment: PathHunter CHO-K1 CXCR7 b-arrestin assay (agonistic activity)
# Type: cell-based
# Details: PathHunter CHO-K1 CXCR7 b-arrestin cell line
# Method: The CXCl12 receptor and CXCR7 agonistic activities of the compounds of formula (I) are determined in accordance with the following experimental method.
# The assay is using the PathHunter™ CHO-K1 CXCR7 b-arrestin cell line from DiscoverX. The system is based on the Enzyme Fragment Complementation Technology. Two complementing fragments of the b-galactosidase enzyme are expressed within stably transfected cells. The larger portion of b-gal, termed EA for Enzyme Acceptor, is fused to the C-terminus of b-arrestin 2. The smaller fragment, termed ProLink™ tag, is fused to CXCR7 at the C-terminus. Upon activation, b-arrestin is recruited which forces the interaction of ProLink and EA, allowing complementation of the two fragments of b-gal and the formation of a functional enzyme which is capable of hydrolysing the substrate and generating a chemiluminescent signal.
# CHO-K1 CXCR7 b-arrestin cells are detached from culture dishes with a cell dissociation buffer (Invitrogen, #13151-014) and collected in growing medium (F12 HAMS 90% (v/v)/FCS 10% (v/v), Penicilin/streptomycin 1% (v/v)). 5000 cells per well (in 20 μl) are seeded in a 384 well plate (white-walled, clear bottom; BD Falcon #353274). The plate is incubated at 37° C./5% CO2 for 24 hours. Medium is then replaced by 20 μl OPTIMEM (Invitrogen #31985) for 3 to 4 hours. Test compounds are dissolved at 10 mM in DMSO and serially diluted in DMSO to 200× of the final concentration for dose response curves. Compounds are then diluted 1:33.3 in HBSS1×. 5 μl/well of HBSS1×/20 mM HEPES/0.2% BSA are added to the assay plate followed by addition of 5 μl/well of diluted compounds. CXCL12 (Peprotech #300-28A) may be used as a reference agonist. The plate is incubated for 90 minutes at 37° C. 12 μl of detection reagent (Path Hunter Detection Kit, DiscoveRx, #93-0001) is transferred to the assay plate and to the plate is incubated for 1 hour at room temperature. Luminescent signal is read in a microplate reader (FLUOstar Optima, bmg). The calculated EC50 values may fluctuate depending on the daily cellular assay performance. Fluctuations of this kind are known to those skilled in the art. Average EC50 values from several measurements are given as geometric mean values.
# Sequence of CXCR7 (P25106 whole entry): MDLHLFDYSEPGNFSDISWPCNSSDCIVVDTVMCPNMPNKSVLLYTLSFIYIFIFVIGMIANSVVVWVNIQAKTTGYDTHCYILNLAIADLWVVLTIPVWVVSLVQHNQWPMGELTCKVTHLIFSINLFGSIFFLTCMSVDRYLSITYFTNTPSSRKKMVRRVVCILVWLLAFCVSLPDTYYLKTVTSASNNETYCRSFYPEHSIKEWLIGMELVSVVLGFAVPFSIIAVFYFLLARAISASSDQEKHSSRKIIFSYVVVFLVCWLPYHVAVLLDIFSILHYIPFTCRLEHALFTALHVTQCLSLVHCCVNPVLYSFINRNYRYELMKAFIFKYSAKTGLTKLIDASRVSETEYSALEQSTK
# Sequence of CXCR7 (P32121 whole entry partner): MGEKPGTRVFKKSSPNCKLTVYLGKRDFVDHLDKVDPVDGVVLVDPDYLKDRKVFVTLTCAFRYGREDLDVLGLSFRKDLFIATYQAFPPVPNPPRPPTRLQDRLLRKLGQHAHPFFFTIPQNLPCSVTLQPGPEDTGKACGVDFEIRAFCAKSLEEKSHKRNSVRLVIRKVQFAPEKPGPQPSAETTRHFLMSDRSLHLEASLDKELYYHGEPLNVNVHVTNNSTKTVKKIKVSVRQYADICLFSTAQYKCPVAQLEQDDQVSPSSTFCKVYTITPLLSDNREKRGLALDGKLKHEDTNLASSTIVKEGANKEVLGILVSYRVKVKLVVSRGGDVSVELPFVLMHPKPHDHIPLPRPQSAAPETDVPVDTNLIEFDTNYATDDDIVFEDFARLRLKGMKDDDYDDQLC
row,Compound,EC50
1,O=C(Nc1cccc(CN2CCC(C(=O)NC3CCCCC3)CC2)c1)c1ccc(Cl)s1 [Example 1.282],5 nM
2,CCc1cc(CN2CCC(C(=O)NC(C)(C)C)CC2)cc(NC(=O)c2ccc(F)cc2)c1 [Example 1.331],62 nM
3,O=C(Nc1cccc(CN2CCC(C(=O)NC3CCCCC3)CC2)c1)c1cc(F)c(Cl)nc1Cl [Example 1.089],15 nM
4,O=C(Nc1cccc(CN2CCC(C(=O)NC3CCCCC3)CC2)c1)c1ccc2ccccc2c1 [Example 1.007],6 nM
5,CCc1ccc(NC(=O)c2cncc(C)c2)cc1CN1CCC(C(=O)NC(C)(C)C)CC1 [Example 1.333],57 nM
6,"rac-6-Trifluoromethyl-pyridine-2-carboxylic acid [3-((2S*,4S*)-4-cyclohexylcarbamoyl-2-methyl-piperidin-1-ylmethyl)-phenyl]-amide [Example 2.101]",5 nM
7,CCc1cncc(C(=O)Nc2cccc(CN3CCC(C(=O)NC4CCCCC4)CC3)c2)c1 [Example 1.154],2 nM
8,CC(c1cccc(NC(=O)c2cc(Cl)ccn2)c1)N1CCC(C(=O)NC2CCCCC2)CC1 (racemic) [Example 1.180],51 nM
9,COc1cc(CN2CCC(C(=O)NC(C)(C)C)CC2)cc(NC(=O)c2ccc(F)cc2)c1 [Example 1.280],409 nM
10,Cc1nc(CC(=O)Nc2cccc(CN3CCC(C(=O)NC(C)(C)C)CC3)c2)c(C)s1 [Example 1.261],2 nM
11,"CCC(C)(C)NC(=O)C1CCN(Cc2cccc(NC(=O)c3cc(C)c[n+]([O-])c3)c2)CC1 [Example 4.023, N-{3-[4-(1,1-Dimethyl-propylcarbamoyl)-piperidin-1-ylmethyl]-phenyl}-5-methyl-1-oxy-nicotinamide]",173 nM
12,COC(=O)c1cncc(C(=O)Nc2cccc(CN3CCC(C(=O)NC(C)(C)C)CC3)c2)c1 [Example 1.349],34 nM
13,O=C(Nc1cccc(CN2CCC(C(=O)NC3CCCCC3)CC2)c1)c1ccc(Cl)c(F)c1 [Example 1.132],10 nM
14,CC(C)(C)NC(=O)C1CCN(Cc2cccc(NC(=O)C3CCOC3)c2)CC1 (racemic) [Example 1.256],222 nM
15,C/C=C/C(=O)Nc1cccc(CN2CCC(C(=O)NC(C)(C)C)CC2)c1 [Example 1.335],21 nM
16,O=C(Nc1cccc(CN2CCC(C(=O)NC3CCCCC3)CC2)c1)c1cccnc1C(F)(F)F [Example 1.059],393 nM
17,COc1cc(C(=O)Nc2cccc(CN3CCC(C(=O)NC4CCCCC4)CC3)c2)nc(OC)n1 [Example 1.062],57 nM
18,O=C(Nc1cccc(CN2CCC(C(=O)NC3CCCCC3)CC2)c1)c1ccc(Cl)cc1Cl [Example 1.138],6 nM
19,CC(c1cccc(NC(=O)c2ccncc2Cl)c1)N1CCC(C(=O)NC2CCCCC2)CC1 (racemic) [Example 1.174],559 nM
20,COc1ccc(C(=O)Nc2cccc(C(C)N3CCC(C(=O)NC4CCCCC4)CC3)c2)cc1 (stereo not drawn) [Example 1.167],25 nM
21,COc1ccc(NC(=O)c2cncc(C)c2)cc1CN1CCC(C(=O)NC(C)(C)C)CC1 [Example 1.297],98 nM

row,Compound,EC50
1,CC(C)(C)NC(=O)C1CCN(Cc2cccc(NC(=O)c3cncc(C4CC4)c3)c2)CC1 [Example 1.240],3 nM
2,CCc1cc(CN2CCC(C(=O)NC(C)(C)C)CC2)cc(NC(=O)c2cccc(C(F)(F)F)n2)c1 [Example 1.329],159 nM
3,O=C(Nc1cccc(CN2CCC(C(=O)NC3CCCCC3)CC2)c1)c1ccc(N2CCCC2)cn1 [Example 1.084],39 nM
4,CC(C)(C)NC(=O)C1CCN(Cc2cccc(NC(=O)Cc3ccccc3)c2)CC1 [Example 1.259],4 nM
5,Cc1cncc(C(=O)Nc2ccc(Cl)c(CN3CCC(C(=O)NC4CCCC4)CC3)c2)c1 [Example 1.226],2 nM
6,O=C(Nc1cccc(CN2CCC(C(=O)NC3CCCCC3)CC2)c1)c1cc(C(F)(F)F)cc(C(F)(F)F)c1 [Example 1.136],43 nM
7,Cc1ncccc1C(=O)Nc1cccc(CN2CCC(C(=O)NC3CCCCC3)CC2)c1 [Example 1.065],59 nM
8,CC(C)Cc1cc(C(=O)Nc2cccc(C(C)N3CCC(C(=O)NC4CCCCC4)CC3)c2)n(C)n1 (racemic) [Example 1.189],15 nM
9,Cc1cncc(C(=O)Nc2cccc(C(C)N3CCC(C(=O)NC4CCCCC4)CC3)c2)c1 (racemic) [Example 1.172],28 nM
10,O=C(Nc1cccc(CN2CCC(C(=O)NC3CCCCC3)CC2)c1)c1ccccc1OC(F)(F)F [Example 1.095],5 nM
11,Cc1cc(CN2CCC(C(=O)NC(C)(C)C)CC2)cc(NC(=O)c2cccc(C(F)(F)F)n2)c1 [Example 1.316],36 nM
12,O=C(Nc1ccc(Cl)c(CN2CCC(C(=O)NC3CCCC3)CC2)c1)c1ccccc1 [Example 1.217],0.4 nM
13,O=C(Nc1cccc(CN2CCC(C(=O)NC3CCCCC3)CC2)c1)c1cc(Cl)cc(Cl)c1 [Example 1.139],22 nM
14,O=C(Nc1cccc(CN2CCC(C(=O)NC3CCCCC3)CC2)c1)C1CCCC1 [Example 1.017],29 nM
15,CC(C)(C)NC(=O)C1CCN(Cc2cccc(NC(=O)c3cccc(C(F)(F)F)[n+]3[O-])c2)CC1 [Example 1.345],1 nM
16,CC(C)(C)NC(=O)C1CCN(Cc2cccc(NC(=O)C3(c4ccc(Cl)cc4Cl)CC3)c2)CC1 [Example 1.268],2 nM
17,COc1cccc(C(=O)Nc2cccc(CN3CCC(C(=O)NC4CCCCC4)CC3)c2)c1 [Example 1.023],4 nM
18,COc1ccc(NC(=O)c2cccc(C(F)(F)F)n2)cc1CN1CCC(C(=O)NC(C)(C)C)CC1 [Example 1.296],6 nM
19,O=C(Nc1cccc(CN2CCC(C(=O)NC3CCCC3)CC2)c1)c1ccc(F)cn1 [Example 1.207],0.8 nM
20,CC(C)(C)NC(=O)C1CCN(Cc2cccc(NC(=O)Cc3c(C(F)(F)F)ccc(Cl)c3Cl)c2)CC1 [Example 1.251],3 nM
21,O=C(Nc1cccc(CN2CCC(C(=O)NC3CCCCC3)CC2)c1)c1nccc2ccccc12 [Example 1.021],39 nM

row,Compound,EC50
1,CC(c1cccc(NC(=O)c2ccc(Cl)cc2)c1)N1CCC(C(=O)NC2CCCCC2)CC1 (stereo not drawn) [Example 1.164],8 nM
2,CC(c1cccc(NC(=O)c2ccc(N3CCCC3)cn2)c1)N1CCC(C(=O)NC2CCCCC2)CC1 (racemic) [Example 1.188],215 nM
3,CN(C)C/C=C/C(=O)Nc1cccc(CN2CCC(C(=O)NC(C)(C)C)CC2)c1 [Example 1.342],216 nM
4,Cc1cncc(C(=O)Nc2nc(CN3CCC(C(=O)NC4CCCC4)CC3)cs2)c1 [Example 1.294],408 nM
5,CCC(C)(C)NC(=O)C1CCN(Cc2cccc(NC(=O)c3ncc(Cl)cc3F)c2)CC1 [Example 1.343],1 nM
6,COc1c(CN2CCC(C(=O)NC(C)(C)C)CC2)cccc1NC(=O)c1cccc(C(F)(F)F)n1 [Example 1.319],45 nM
7,O=C(Nc1cccc(CN2CCC(C(=O)NC3CCCCC3)CC2)c1)c1cnc(Cl)c(Cl)c1 [Example 1.090],6 nM
8,Cc1cc(CN2CCC(C(=O)NC(C)(C)C)CC2)cc(NC(=O)c2cncc(C)c2)c1 [Example 1.317],76 nM
9,O=C(Nc1cccc(CN2CCC(C(=O)NC3CC3)CC2)c1)c1ccc(F)cn1 [Example 1.205],2 nM
10,Cc1cncc(C(=O)Nc2cc(CN3CCC(C(=O)NC(C)(C)C)CC3)ccc2C)c1 [Example 1.302],6 nM
11,O=C(Nc1cccc(CN2CCC(C(=O)NC3CCCCC3)CC2)c1)C1CCC1 [Example 1.150],25 nM
12,O=C(Nc1cccc(CN2CCC(C(=O)NC3CCCCC3)CC2)c1)c1cncc(F)c1 [Example 1.056],7 nM
13,Cc1cc(C(=O)Nc2cccc(CN3CCC(C(=O)NC4CCCCC4)CC3)c2)no1 [Example 1.005],18 nM
14,CC(C(=O)Nc1cccc(CN2CCC(C(=O)NC(C)(C)C)CC2)c1)c1ccc(Cl)cc1 (stereo not drawn) [Example 1.312],8 nM
15,CC(C)(C)NC(=O)C1CCN(Cc2cccc(NC(=O)C(O)c3ccccc3Cl)c2)CC1 (racemic) [Example 1.270],6 nM
16,Cc1cncc(C(=O)Nc2cccc(CN3CCC(C(=O)NC(C)(C)C)CC3)c2C)c1 [Example 1.314],145 nM
17,COc1ccc(CN2CCC(C(=O)NC(C)(C)C)CC2)cc1NC(=O)c1ccc(F)cc1 [Example 1.306],4 nM
18,CC(c1cccc(NC(=O)c2cnccn2)c1)N1CCC(C(=O)NC2CCCCC2)CC1 (racemic) [Example 1.170],18 nM
19,Cc1ccc(C(=O)Nc2cccc(CN3CCC(C(=O)NC4CCCCC4)CC3)c2)cc1C [Example 1.113],7 nM
20,CC(C)Cc1ccc(C(=O)Nc2cccc(CN3CCC(C(=O)NC4CCCCC4)CC3)c2)cc1 [Example 1.041],43 nM
21,O=C(Nc1cccc(CN2CCC(C(=O)NC3CCCCC3)CC2)c1)c1cn[nH]c1 [Example 1.044],1240 nM

# Reference: patent US9428456B2, “1-[m-carboxamido(hetero)aryl-methyl]-heterocyclyl-carboxamide derivatives” (Actelion Pharmaceuticals Ltd., priority 2012, dated 2016)
